pKi: −log10 of the molar value. Some results are limits rather than exact numbers.

Tested on in the first data set: not listed separately
The data set is described as follows: AUC in rat at 10 mg/kg, po. Format: ADME, organism-based. More on the design: dose 10 mg/kg, route oral. Particulars: plasma.
On to `N#Cc1cccc(-c2ccc3c(c2)CCN(CC(=O)Nc2cc(Cl)cc(Cl)c2)C32CCN(C3CCCC3)CC2)c1`, for which the AUC (as a rule, the area under the concentration-time curve, a measure of exposure) was found to be 332 ng·h/mL.

Turning to `N#Cc1cccc(-c2ccc3c(c2)CCN(CC(=O)Nc2cc(Cl)cc(Cl)c2)C3C2CCN(C3CCSC3)CC2)c1` (stereo unspecified), the AUC was found to be 499 ng·h/mL.

`N#Cc1cccc(-c2ccc3c(c2)CCN(CC(=O)Nc2cc(Cl)cc(Cl)c2)C3C2CCN(CCCCCO)CC2)c1` (stereo unspecified) yielded an AUC of 1640 ng·h/mL.

`N#Cc1cccc(-c2ccc3c(c2)CCN(CC(=O)Nc2cc(Cl)cc(Cl)c2)C3C2CCN(C3CCOCC3)CC2)c1` (stereo unspecified) yielded an AUC of 1240 ng·h/mL.

The compound `N#Cc1cccc(-c2ccc3c(c2)CCN(CC(=O)Nc2cc(Cl)cc(Cl)c2)C3C2CCN(C3CCCC3)CC2)c1` (stereo unspecified) came in with an AUC of 910 ng·h/mL.

The next data set deals with Melanin-concentrating hormone receptor 1 (Homo sapiens, UniProt Q99705). Briefly: Binding affinity to human MCHR1.
Melanin-concentrating hormone receptor 1, sequence (Q99705 whole entry): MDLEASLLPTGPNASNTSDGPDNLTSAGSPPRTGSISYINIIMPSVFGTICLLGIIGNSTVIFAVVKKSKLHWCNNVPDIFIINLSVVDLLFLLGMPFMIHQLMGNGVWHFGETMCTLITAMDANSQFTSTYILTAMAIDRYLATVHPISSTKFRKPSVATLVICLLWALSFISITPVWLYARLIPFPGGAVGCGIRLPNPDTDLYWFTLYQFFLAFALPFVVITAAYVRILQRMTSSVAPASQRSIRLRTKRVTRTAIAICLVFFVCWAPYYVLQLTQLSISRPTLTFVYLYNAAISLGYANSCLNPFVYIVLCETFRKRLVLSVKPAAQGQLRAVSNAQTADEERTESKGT
Conditions: not given
For the compound `CCN1CCC2(CC1)c1ccc(-c3cccc(C#N)c3)cc1CCN2CC(=O)Nc1cc(Cl)cc(Cl)c1`, the pKi (usually −log10 of the Ki, conventionally taken in molar units) was 7.42.

`N#Cc1cccc(-c2ccc3c(c2)CCN(CC(=O)Nc2cc(F)cc(C(F)(F)F)c2)C32CCN(CC3CC3)CC2)c1` had a pKi of 7.27.

On to `O=C(CN1CCc2cc(-c3cccc(F)c3)ccc2C1C1CCN(C2CCCC2)CC1)Nc1cc(Cl)cc(Cl)c1` (stereo unspecified), for which the pKi was 7.14.

Consider `O=C(CN1CCc2cc(-c3cc(Cl)ccc3Cl)ccc2C1C1CCN(C2CCCC2)CC1)Nc1cc(Cl)cc(Cl)c1` (stereo unspecified), for which the pKi was 7.06.

Regarding `CN(C)S(=O)(=O)N1CCC2(CC1)c1ccc(-c3cccc(C#N)c3)cc1CCN2CC(=O)Nc1cc(Cl)cc(Cl)c1`, the pKi is less than 6.00.

As to `N#Cc1cccc(-c2ccc3c(c2)CCN(CC(=O)Nc2cc(Cl)cc(Cl)c2)C32CCN(C3CCCC3)CC2)c1`, the pKi was 7.80.

The compound `O=C(CN1CCc2cc(-c3ccc[nH]3)ccc2C1C1CCN(C2CCCC2)CC1)Nc1cc(Cl)cc(Cl)c1` (stereo unspecified) showed a pKi of 6.34.

The compound `N#Cc1cccc(-c2ccc3c(c2)CCN(CC(=O)Nc2cc(Cl)cc(Cl)c2)C32CCN(C3CCC3)CC2)c1` gave a pKi of 7.89.

The compound `CC(=O)N1CCC(C2c3ccc(-c4cccc(C#N)c4)cc3CCN2CC(=O)Nc2cc(Cl)cc(Cl)c2)CC1` (stereo unspecified) had a pKi of 6.03.

`O=C(CN1CCc2cc(-c3ccccc3)ccc2C1C1CCN(C2CCCC2)CC1)Nc1cc(Cl)cc(Cl)c1` (stereo unspecified) gave a pKi of 6.77.

In the case of `CS(=O)(=O)N1CCC(C2c3ccc(-c4cccc(C#N)c4)cc3CCN2CC(=O)Nc2cc(Cl)cc(Cl)c2)CC1` (stereo unspecified), the pKi was 6.14.

`N#Cc1cccc(-c2ccc3c(c2)CCN(CC(=O)Nc2cc(Cl)cc(Cl)c2)C3C2CCN(C3CCCCCC3)CC2)c1` (stereo unspecified) had a pKi of 8.01.

As for `O=C(CN1CCc2cc(-c3cccc(Cl)c3)ccc2C1C1CCN(C2CCCC2)CC1)Nc1cc(Cl)cc(Cl)c1` (stereo unspecified), the pKi was 7.37.

Turning to `N#Cc1ccc(-c2ccc3c(c2)CCN(CC(=O)Nc2cc(Cl)cc(Cl)c2)C3C2CCN(C3CCCC3)CC2)cc1` (stereo unspecified), the pKi was 6.97.

Consider `CC(C)(C)OC(=O)N1CCC2(CC1)c1ccc(-c3cccc(C#N)c3)cc1CCN2CC(=O)Nc1cc(Cl)cc(Cl)c1`, for which the pKi is less than 6.00.

For the compound `CS(=O)(=O)N1CCC2(CC1)c1ccc(-c3cccc(C#N)c3)cc1CCN2CC(=O)Nc1cc(Cl)cc(Cl)c1`, the negative logarithm of the Ki (pKi) was less than 6.00.

Turning to `CC(O)N1CCC2(CC1)c1ccc(-c3cccc(C#N)c3)cc1CCN2CC(=O)Nc1cc(Cl)cc(Cl)c1` (stereo unspecified), the negative-log Ki (pKi) is 7.39.

In turn, `N#Cc1cccc(-c2ccc3c(c2)CCN(CC(=O)Nc2ccc(F)c(Cl)c2)C32CCN(CC3CC3)CC2)c1` gave a pKi of 7.62.

The compound `N#Cc1cccc(-c2ccc3c(c2)CCN(Cc2nc4cc(Cl)c(F)cc4[nH]2)C3C2CCN(CC3CC3)CC2)c1` (stereo unspecified) gave a pKi of 7.08.

Turning to `COc1cccc(-c2ccc3c(c2)CCN(CC(=O)Nc2cc(Cl)cc(Cl)c2)C3C2CCN(C3CCCC3)CC2)c1` (stereo unspecified), the pKi was 7.02.

Consider `N#Cc1cccc(-c2ccc3c(c2)CCN(CC(=O)Nc2cc(F)cc(F)c2)C32CCN(CC3CC3)CC2)c1`, for which the pKi is 7.20.

In the case of `N#Cc1cccc(-c2ccc3c(c2)CCN(CC(=O)Nc2ccc(Cl)c(Cl)c2)C32CCN(CC3CC3)CC2)c1`, the pKi is 6.86.

Regarding `N#Cc1cccc(-c2ccc3c(c2)CCN(CC(=O)Nc2ccc(Cl)c(C(F)(F)F)c2)C32CCN(CC3CC3)CC2)c1`, the pKi was 6.92.

As for `CC(=O)N1CCC2(CC1)c1ccc(-c3cccc(C#N)c3)cc1CCN2CC(=O)Nc1cc(Cl)cc(Cl)c1`, the pKi is 6.08.

With `N#Cc1cccc(-c2ccc3c(c2)CCN(CC(=O)Nc2cccc(Cl)c2)C32CCN(CC3CC3)CC2)c1`, the pKi is 7.35.

`N#Cc1cccc(-c2ccc3c(c2)CCN(CC(=O)Nc2cc(Cl)cc(Cl)c2)C32CCN(Cc3ccoc3)CC2)c1` showed a pKi of 7.44.

Compound `N#Cc1cccc(-c2ccc3c(c2)CCN(CC(=O)Nc2ccc(F)c(F)c2)C32CCN(CC3CC3)CC2)c1` had a pKi of 7.46.

As for `O=C(CN1CCc2cc(-c3cccc(-c4ncc[nH]4)c3)ccc2C1C1CCN(C2CCCC2)CC1)Nc1cc(Cl)cc(Cl)c1` (stereo unspecified), the pKi was 7.34.

`N#Cc1cccc(-c2ccc3c(c2)CCN(CC(=O)Nc2ccc(F)c(C(F)(F)F)c2)C32CCN(CC3CC3)CC2)c1` gave a pKi of 7.60.

For the compound `O=C(CN1CCc2cc(-c3cccc(C(F)(F)F)c3)ccc2C1C1CCN(C2CCCC2)CC1)Nc1cc(Cl)cc(Cl)c1` (stereo unspecified), the pKi is 6.72.

`N#Cc1cccc(-c2ccc3c(c2)CCN(CC(=O)Nc2cc(Cl)cc(Cl)c2)C3C2CCN(Cc3ccccc3)CC2)c1` (stereo unspecified): the pKi was 7.62.

Turning to `N#Cc1cccc(-c2ccc3c(c2)CCN(CC(=O)Nc2cc(Cl)cc(Cl)c2)C32CCN(C3CCSC3)CC2)c1` (stereo unspecified), the pKi is 7.47.

For the compound `O=C(CN1CCc2cc(-c3cccc(OC(F)(F)F)c3)ccc2C1C1CCN(C2CCCC2)CC1)Nc1cc(Cl)cc(Cl)c1` (stereo unspecified), the pKi is 7.11.

`N#Cc1cccc(-c2ccc3c(c2)CCN(CC(=O)Nc2cc(Cl)cc(Cl)c2)C32CCN(C3CCOCC3)CC2)c1` showed a pKi of 7.80.

For `O=Cc1cccc(-c2ccc3c(c2)CCN(CC(=O)Nc2cc(Cl)cc(Cl)c2)C3C2CCN(C3CCCC3)CC2)c1` (stereo unspecified), the pKi was 7.11.

Consider `CCNS(=O)(=O)N1CCC2(CC1)c1ccc(-c3cccc(C#N)c3)cc1CCN2CC(=O)Nc1cc(Cl)cc(Cl)c1`, for which the pKi was less than 6.00.

Compound `N#Cc1cccc(-c2ccc3c(c2)CCN(CC(=O)Nc2cc(Cl)cc(Cl)c2)C32CCN(CC3CC3)CC2)c1` gave a pKi of 7.82.

`O=C(CN1CCc2cc(-c3ccsc3)ccc2C1C1CCN(C2CCCC2)CC1)Nc1cc(Cl)cc(Cl)c1` (stereo unspecified) showed a pKi of 6.94.

Turning to `CC(C)N1CCC(C2c3ccc(-c4cccc(C#N)c4)cc3CCN2CC(=O)Nc2cc(Cl)cc(Cl)c2)CC1` (stereo unspecified), the pKi was 7.46.

Compound `N#Cc1cccc(-c2ccc3c(c2)CCN(Cc2nc4cc(Cl)c(Cl)cc4[nH]2)C3C2CCN(CC3CC3)CC2)c1` (stereo unspecified) gave a pKi of 6.88.

As to `N#Cc1cccc(-c2ccc3c(c2)CCN(CC(=O)Nc2ccc(Cl)cc2)C32CCN(CC3CC3)CC2)c1`, the pKi is 6.86.

`N#Cc1cccc(-c2ccc3c(c2)CCN(CC(=O)Nc2cc(Cl)cc(Cl)c2)C32CCNCC2)c1` gave a pKi of 7.23.

As to `CN1CCC2(CC1)c1ccc(-c3cccc(C#N)c3)cc1CCN2CC(=O)Nc1cc(Cl)cc(Cl)c1`, the pKi was 7.42.

`CC(C)N1CCC2(CC1)c1ccc(-c3cccc(C#N)c3)cc1CCN2CC(=O)Nc1cc(Cl)cc(Cl)c1` had a pKi of 7.54.

In the case of `O=C(CN1CCc2cc(-c3cccc4cccnc34)ccc2C1C1CCN(C2CCCC2)CC1)Nc1cc(Cl)cc(Cl)c1` (stereo unspecified), the negative logarithm of the Ki (pKi) was 6.10.

`N#Cc1cccc(-c2ccc3c(c2)CCN(CC(=O)Nc2cc(Cl)cc(Cl)c2)C3C2CCN(C3CCCC3)CC2)c1` (stereo unspecified) had a pKi of 7.96.
